Test results reported in US10039761B2, “Co-crystals and pharmaceutical compositions comprising the same” (Vertex Pharmaceuticals Incorporated, priority 2013, dated 2018).
“Also recorded” adds a separate entry of the source.

What was measured:
[1] = system: HFL1; experiment: Combination with genotoxic agents, cell viability (Mixtures Blend); type: cell-based, human
Experimental: (§1) The cell-based experiments and assays were performed with either molecule but not always with both. Compounds (1) and (2) were generally very similar in those assays and experiments. Analysis of the combination experiments was performed using two methods: the Bliss Additivity model and the Mixtures Blend method to determine the degree of synergy, additivity, or antagonism. In the Bliss method, a matrix of Bliss scores was generated for each cell line and treatment, and a sum of the Bliss values over the range of combination concentrations tested was calculated. […] Larger average Bliss values indicate greater confidence in reporting synergy, and smaller scores indicate greater confidence in reporting antagonism. In the Mixtures Blend method combinants were added in a range of optimal ratios using design of experiment (DOE) software (DX-8 from STAT-EASE); the cells were irradiated with 2 Gy as required. Synergy was determined using statistical analysis of the data (ANOVA) to indicate linear (additivity) or statistically significant (p<0.1) non-linear (antagonism or synergy) mixes of the combinants. The following SOC agents were tested in double combinations with Compound (1): etoposide (a topoisomerase inhibitor that induces DSBs), cisplatin (DNA cross-linker), carboplatin (DNA cross-linker), fluorouracil (5-FU, antimetabolite that inhibits thymidylate synthase), paclitaxel (mitotic inhibitor that binds to tubulin), cetuximab (EGFR monoclonal antibody), and radiation. […] These findings were confirmed using the Bliss Additivity model (Table 21). […] While there is not total agreement in the various lines tested, (as detailed in the other sections) the majority agree and the conclusions arrived at are common to each. […] The cancer cell lines in Table 19 indicate: ESO26-gastroesophageal junction cancer, OE19-gastroesophageal junction cancer, […]549-lung cancer, colo205-colon cancer, H460-lung cancer, H2009-lung cancer, FaDu-pharynx cancer, Miapaca2-pancreatic cancer, HFL1-human fetal lung fibroblast.

[2] = system: OE19; experiment: as above; type: cell-based
Experimental: as §1

[3] = system: Colo205; experiment: as above; type: cell-based; settings: with Cisplatin and 5-FU
Experimental: as §1

[4] = system: DMS-53; experiment: as above; type: cell-based; settings: with Cisplatin and Etoposide
Experimental: as §1

[5] = system: panel of 60 cancer cell lines; experiment: Double combinations in 60 cancer cell line panel (ATPLite, Bliss); type: cell-based; settings: 144 hours
Experimental: The cell-based experiments and assays were performed with either molecule but not always with both. Compounds (1) and (2) were generally very similar in those assays and experiments. Analysis of the combination experiments was performed using two methods: the Bliss Additivity model and the Mixtures Blend method to determine the degree of synergy, additivity, or antagonism. In the Bliss method, a matrix of Bliss scores was generated for each cell line and treatment, and a sum of the Bliss values over the range of combination concentrations tested was calculated. […] Larger average Bliss values indicate greater confidence in reporting synergy, and smaller scores indicate greater confidence in reporting antagonism. In the Mixtures Blend method combinants were added in a range of optimal ratios using design of experiment (DOE) software (DX-8 from STAT-EASE); the cells were irradiated with 2 Gy as required. Synergy was determined using statistical analysis of the data (ANOVA) to indicate linear (additivity) or statistically significant (p<0.1) non-linear (antagonism or synergy) mixes of the combinants. Compound (2) was tested against a panel of 60 cancer cell lines (see Table 16) alone and in combination with a panel of cytotoxic and non-cytotoxic SOC agents. The 60 cancer cell lines represent lines derived from breast cancer, prostate cancer, lung cancer, acute myeloid leukemia (AML), myeloma and other cancers. Cells were removed from liquid nitrogen storage, thawed and expanded in appropriate growth media. Once expanded, cells were seeded in 384-well tissue culture treated plates at 500 cells per well. […] At the end of either 0 hours or 144 hours, cell status was analyzed using ATPLite (Perkin Elmer) to assess the biological response of cells to drug combinations.

| Compound | Synergy or Antagonism, No Radiation ([1]; no agent ticked) | Synergy or Antagonism, Plus Radiation (2 Gy) ([1]; no agent ticked) | Synergy or Antagonism, No Radiation ([1]; with Cisplatin) | Synergy or Antagonism, No Radiation ([1]; with Cisplatin and 5-FU) | Synergy or Antagonism, Plus Radiation (2 Gy) ([1]; with Cisplatin and 5-FU) | Synergy or Antagonism, No Radiation ([1]; with Etoposide) | Synergy or Antagonism, No Radiation ([1]; with Paclitaxel) | Synergy or Antagonism, No Radiation ([2]; with 5-FU) | Synergy or Antagonism, Plus Radiation (2 Gy) ([2]; with 5-FU) | Synergy or Antagonism, No Radiation ([2]; with Carboplatin) | Synergy or Antagonism, Plus Radiation (2 Gy) ([2]; with Carboplatin) | Synergy or Antagonism, No Radiation ([2]; with Cisplatin and Paclitaxel) | Synergy or Antagonism, Plus Radiation (2 Gy) ([2]; with Cisplatin and Paclitaxel) | Synergy or Antagonism, No Radiation [3] | Synergy or Antagonism, Plus Radiation (2 Gy) [3] | Synergy or Antagonism, No Radiation [4] | Bliss analysis, combination effect ([5]; in combination with bleomycin) | Bliss analysis, combination effect ([5]; in combination with doxorubicin) | Bliss analysis, combination effect ([5]; in combination with etoposide) |
| --- | --- | --- | --- | --- | --- | --- | --- | --- | --- | --- | --- | --- | --- | --- | --- | --- | --- | --- | --- |
| CNC(=O)c1ccnc2c([C@H](C)CNc3cc(-c4cnc(C)nc4)ncn3)cccc12 [Compound (1), (S)-N-methyl-8-(1-((2′-methyl-[4,5′-bipyrimidin]-6-yl)amino)propan-2-yl)quinoline-4-carboxamide] | Additivity | No effect | Additive | Additivity | Additivity, Plus | Synergy | Additivity | Additivity | Synergy*, Plus | Antagonism | Synergy*, Plus | Mix | Synergy, Plus | synergistic; also recorded: Synergy | Synergy, Plus | Strong Synergy |  |  |  |
| [2H]c1nc(C)nc([2H])c1-c1cc(NC[C@@H](C)c2cccc3c(C(=O)NC)ccnc23)ncn1 [Compound (2), (S)-N-methyl-8-(1-((2′-methyl-4′,6′-dideutero-[4,5′-bipyrimidin]-6-yl)amino)propan-2-yl)quinoline-4-carboxamide] |  |  |  |  |  |  |  |  |  |  |  |  |  |  |  |  | strong synergy (greater than 10 indicates strong synergy) | strong synergy (greater than 10 indicates strong synergy) | strong synergy (greater than 10 indicates strong synergy) |
